Consider 13 substances from patent US11891634B2, “PDE5A destabilizing domains” (The Board of Trustees of the Leland Stanford Junior …, priority 2017, dated 2024).

Assay [1] relates to NIH3T3 cells expressing AcGFP-PDE5A fusions. In words: FACS analysis of C-terminal PDE5A mutants (AcGFP-PDE5A fusions), Sildenafil vs vehicle. The settings on record: for Mean Fluorescence intensity: NIH3T3; for Stabilization ratio: Sildenafil 10 μM vs vehicle alone; for basal expression in the absence of ligand (in words): extended PDE5A variants, NIH3T3, no Sildenafil. The assay is classed as cell-based, mouse. As for the experimental part:
(§1) The NIH3T3 cell line was cultured in DMEM supplemented with 10% heat-inactivated donor bovine serum (Invitrogen), 2 mM glutamine, 100 U/ml penicillin and 100 μg/ml streptomycin.
(§2) The ΦNX ecotropic packaging cell line was transfected using standard Lipofectamine 2000 protocols. Viral supernatants were harvested 48 hours, post transfection, filtered and concentrated 10-fold using Amicon Ultra centrifugal filter device with a 100kDa cutoff. NIH 3T3 cells were incubated with concentrated retroviral supernatants supplemented with 4 μg/ml polybrene for 4 hours at 37° C. Cells were washed once with PBS and cultured in growth media for 24-36 hours to allow for viral integration.
(§3) The transduced NIH3T3 cells were subjected to analysis using fluorescence-activated cell sorting (FACS) to screen the libraries of PDE5A mutants. 24 hours prior to analysis, transduced NIH3T3 cells were plated at 1×10^5 cells per well of a 12-well plate. Cells were removed from the plate using PBS and 2 mM EDTA, washed once with PBS, and resuspended in 200 μL, PBS. FACS analysis was performed on instruments at the Stanford Shared FACS Facility with 10,000 events represented.
(§4) To identify destabilizing domains that are responsive to the PDE5A ligand, Sildenafil, a cell-based screening assay was employed in which the fluorescence of green fluorescent protein derived from Aequorea coerulescens (AcGFP) served as an indicator of PDE5A stability. A library based on the PDE5A catalytic domain sequences was generated using error prone PCR and then cloned in-frame in front of AcGFP. A Moloney murine leukemia retroviral expression was used to stably integrate this library of PDE5A-AcGFP fusions into NIH-3T3 fibroblasts, and the transduced cells were subjected to three rounds of sorting using flow cytometry. In the first round, cells were treated with 10 μM of PDE5A ligand, Sildenafil for 16-24 before analysis. Fluorescent cells were collected and further cultured in the absence of ligand for 60 hours.
(§5) A library of AcGFP-PDE5A fusions i.e., C-terminal PDE5A mutants was screened using the cell-based screening assay described previously to identify C-terminal destabilizing domains. […] Identified candidates were subjected to further characterization by FACS. Cells were split into two treatment groups and incubated with either Sildenafil (10 μM) or vehicle alone for 24 hours. Cells that were mock transduced or transduced with the wild-type PDE5A construct were also included in the analysis. The stabilization ratio was calculated as the fold change in GFP intensity of the AcGFP-PDE5A construct in Sildenafil treated sample compared to vehicle alone treated sample. The results are presented in Table 2 where the C terminal PDE5A mutants are denoted as PDE5AC.
Residue D764 was identified as a mutational hotspot from sequence analysis. PDE5AC (#41) was engineered with either D764N or D764G mutation via site-directed mutagenesis. PDE5AC (#41) +D764N comprises the amino acid sequence of SEQ ID NO. 53 (encoded by SEQ ID NO. 54) and PDE5AC (#41) +D764G comprises the amino acid sequence of SEQ ID NO. 55 (encoded by SEQ ID NO. 56). AcGFP-PDE5A variants were evaluated for Sildenafil dependent stabilization via FACS as described previously. Results from FACS analysis are presented in Table 4 where the C terminal PDE5A mutants are denoted as PDE5AC. The stabilization ratio was calculated as the fold change in GFP intensity of the AcGFP-PDE5A construct in Sildenafil treated sample compared to vehicle alone treated sample.
Extended versions of human PDE5A that included residues in addition to catalytic domain (residues 535-860 of SEQ ID NO. 1) with Q589R polymorphism (SEQ ID NO. 11) were evaluated for use as C-terminal destabilizing domains. Three extended PDE5A sequences were tested that consisted of residues 535-875 of SEQ ID NO. 1 with Q589R polymorphism (SEQ ID NO. 13); residues 466-875 of SEQ ID NO. 1 with Q589R polymorphism (SEQ ID NO. 15); or residues 420-875 of SEQ ID NO. […]
(In general: A flow cytometer gives signals particle by particle.)

The subject of another assay is PDE5A-AcGFP fusions. The assay is described as follows: FACS analysis of N-terminal PDE5A mutants (PDE5A-AcGFP fusions), Sildenafil vs vehicle. The note with it: 24 hours; for Stabilization ratio: Sildenafil 20 μM vs vehicle alone; for Mean Fluorescence Intensity (MFI) Sildenafil (20 μM) / Mean Fluorescence Intensity (MFI) Vehicle control: NIH3T3; for Mean Fluorescence Intensity (MFI) Vehicle control: vehicle alone. It is filed as cell-based, mouse. As for the experimental part:
as §1, §2, §3, §4
as §5, with “PDE5A-AcGFP” for “AcGFP-PDE5A”, “N-terminal” for “C-terminal”, “mutants,” for “mutants”, “(20” for “(10”, “The results are presented in Table 6 where the N terminal PDE5A mutants are denoted as PDE5AN. The” for “The”, “sample.” for “sample. The results are presented in Table 2 where the C terminal PDE5A mutants are denoted as PDE5AC.”

[2] abbreviates: Table 5 (extended variants), Sildenafil (10 μM) +.
Where [3] appears, read: Table 5 (extended variants), Sildenafil (10 μM) −.
Setting [4] is: Table 2, Sildenafil (10 μM) +, 24 hours.
Where [5] appears, read: Table 2, Sildenafil (10 μM) −, vehicle alone, 24 hours.
The mark [6] stands for this setting: Table 2, fold change in GFP intensity, 24 hours.
[7] abbreviates: Table 4 (D764 mutations), Sildenafil (10 μM) +.
The mark [8] stands for this setting: Table 4 (D764 mutations), Sildenafil (10 μM) −.

Turning to “PDE5AC 420-875 (Q589R): AcGFP fused to residues 420-875 of SEQ ID NO. 1 with Q589R polymorphism, SEQ ID NO. 17”, the “Mean Fluorescence intensity” value in assay [1] (setting [2]) worked out at 572; in assay [1] (setting [3]) it was 620. Further, the Stabilization ratio in assay [1] (Table 5) worked out at 0.9. The “basal expression in the absence of ligand (in words)” value (from here on “basal expression in the absence”) in assay [1] is “low basal expression”.
“PDE5AC 466-875 (Q589R): AcGFP fused to residues 466-875 of SEQ ID NO. 1 with Q589R polymorphism, SEQ ID NO. 15”: the figures for the “Mean Fluorescence intensity” value in assay [1] (setting [2]) and in assay [1] (setting [3]) were 888 and 819, respectively. The Stabilization ratio in assay [1] (Table 5) is 1.1. For the same substance, the “basal expression in the absence” value in assay [1] was “low basal expression”.
Take “PDE5AC 535-860 (Q589R): AcGFP fused to PDE5A catalytic domain residues 535-860 with Q589R polymorphism, SEQ ID NO. 11 [reference compound]”: the “Mean Fluorescence intensity” value was 8557 in assay [1] (setting [2]) and 8431 in assay [1] (setting [3]). For the same substance, the Stabilization ratio in assay [1] (Table 5) is 1.0. Further, the “basal expression in the absence” value in assay [1] was “high basal expression”.
The like results for “PDE5AC 535-875 (Q589R): AcGFP fused to residues 535-875 of SEQ ID NO. 1 with Q589R polymorphism, SEQ ID NO. 13” were, in that order, 6462, 6761, 1.0 and “high basal expression”.
On to “PDE5AC (#8): AcGFP fused to C-terminal DD 535-860 of PDE5A (F561L, F564L, Q589R, D724N, S766F, T802P), SEQ ID NO. 34”, for which the entries for the “Mean Fluorescence intensity” value in assay [1] (setting [4]) and in assay [1] (setting [5]) were 3310 and 1066, respectively. The Stabilization ratio in assay [1] (setting [6]) was determined as 3.1.
With “PDE5AC (#40): AcGFP fused to C-terminal DD 535-860 of PDE5A (Q589R, D764G), SEQ ID NO. 26”, the “Mean Fluorescence intensity” value in assay [1] (setting [4]) is 5923; in assay [1] (setting [5]) it was 1255; in assay [1] (setting [7]), 4229; in assay [1] (setting [8]), 917. Besides, the Stabilization ratio worked out at 4.7 in assay [1] (setting [6]) and 4.6 in assay [1] (Table 4).
As to “PDE5AC (#41) + D764G: PDE5AC (#41) engineered with D764G mutation, SEQ ID NO. 55”, the entries for the “Mean Fluorescence intensity” value in assay [1] (setting [7]) and in assay [1] (setting [8]) were 730 and 709, respectively. Further, in assay [1] (Table 4), the Stabilization ratio came to 1.0.
In the case of “PDE5AC (#41) + D764N: PDE5AC (#41) engineered with D764N mutation, SEQ ID NO. 53”, the “Mean Fluorescence intensity” value turned out to be 1007 in assay [1] (setting [7]) and 684 in assay [1] (setting [8]). In addition, the Stabilization ratio in assay [1] (Table 4) is 1.5.
“PDE5AN (#19): N-terminal DD 535-860 of PDE5A (Q589R, I599V, T711A, F744L, L746S, L804P), SEQ ID NO. 31, fused to AcGFP”: in the assay with PDE5A-AcGFP fusions, the “Stabilization ratio” value was determined as 2.86, the “Mean Fluorescence Intensity (MFI) Sildenafil (20 μM)” value was 4297 and the “Mean Fluorescence Intensity (MFI) Vehicle control” value is 1502.
In the case of “PDE5AN (#30): N-terminal DD 535-860 of PDE5A (Q589R, L675P, F755L), SEQ ID NO. 69, fused to AcGFP”, in the assay on PDE5A-AcGFP fusions, the “Stabilization ratio” value was found to be 4.46, the “Mean Fluorescence Intensity (MFI) Sildenafil (20 μM)” value is 4713 and the “Mean Fluorescence Intensity (MFI) Vehicle control” value was found to be 1056.
Take “PDE5AN (#35): N-terminal DD 535-860 of PDE5A (S560G, V585A, N587S, Q589R, K591E, S663P, F840S), SEQ ID NO. 32, fused to AcGFP”: in the assay on PDE5A-AcGFP fusions, the “Stabilization ratio” value is given as 2.50, the “Mean Fluorescence Intensity (MFI) Sildenafil (20 μM)” value worked out at 3684 and the “Mean Fluorescence Intensity (MFI) Vehicle control” value turned out to be 1476.
The like results for “PDE5AN (#55): N-terminal DD 535-860 of PDE5A (Q589R, I648V, M816T), SEQ ID NO. 33, fused to AcGFP” were, in that order, 2.87, 3602 and 1257.
For the substance “PDE5AN (#57): N-terminal DD 535-860 of PDE5A (N587S, Q589R, K608E, N661S, D764V), SEQ ID NO. 68, fused to AcGFP”, in the assay with PDE5A-AcGFP fusions, the “Stabilization ratio” value was found to be 7.6, the “Mean Fluorescence Intensity (MFI) Sildenafil (20 μM)” value was found to be 5851 and the “Mean Fluorescence Intensity (MFI) Vehicle control” value is 770.
